Assay results reported in patent US11247970B2, “Selective inhibition of gluconeogenic activity” (Dana-Farber Cancer Institute, Inc., priority 2017, dated 2022).

Key:
[1] = target: T1, PGC-1α (Mus musculus, UniProt O70343); test: Mass spectrometry of acetylated PGC-1α lysine residues; type: cell-based; set-up: expressed in transfected cells; host or cells: U-2 OS cells infected with Ad-PGC-1α and Ad-GCN5; settings: U-2 OS, Ad-PGC-1α and Ad-GCN5, 18 h
T1 sequence (O70343 1-797): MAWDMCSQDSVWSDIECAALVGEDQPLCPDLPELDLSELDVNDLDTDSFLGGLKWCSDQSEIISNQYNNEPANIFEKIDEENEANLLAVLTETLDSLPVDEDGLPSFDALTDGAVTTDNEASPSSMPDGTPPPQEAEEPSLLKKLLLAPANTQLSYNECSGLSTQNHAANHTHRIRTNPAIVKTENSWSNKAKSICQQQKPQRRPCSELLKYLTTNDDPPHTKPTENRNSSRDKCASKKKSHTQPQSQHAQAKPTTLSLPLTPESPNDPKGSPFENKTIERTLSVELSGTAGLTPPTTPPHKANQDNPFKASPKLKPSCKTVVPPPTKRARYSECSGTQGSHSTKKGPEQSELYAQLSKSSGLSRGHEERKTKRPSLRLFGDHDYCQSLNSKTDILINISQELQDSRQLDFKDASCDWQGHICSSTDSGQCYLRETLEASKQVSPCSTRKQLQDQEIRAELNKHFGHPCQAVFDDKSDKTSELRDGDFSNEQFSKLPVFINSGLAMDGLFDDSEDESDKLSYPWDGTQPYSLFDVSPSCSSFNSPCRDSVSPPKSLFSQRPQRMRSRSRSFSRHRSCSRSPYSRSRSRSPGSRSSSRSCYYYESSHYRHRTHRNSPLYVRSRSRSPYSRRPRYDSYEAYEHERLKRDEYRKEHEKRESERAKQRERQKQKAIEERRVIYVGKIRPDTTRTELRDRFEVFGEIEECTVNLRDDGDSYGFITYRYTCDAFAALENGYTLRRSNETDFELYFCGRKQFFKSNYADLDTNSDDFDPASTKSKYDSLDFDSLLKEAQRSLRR
Procedure: Gel bands were dehydrated with acetonitrile, dried and resuspended in 50 mM ammonium bicarbonate (pH 8.0) containing 500 ng of sequencing-grade trypsin (Promega) and incubated at 37° C. for 8 hours. Digested samples were then loaded onto StageTips and desalted. Peptides were eluted with 50% acetonitrile, 5% formic acid, dried using a Speed-Vac apparatus, and resuspended in 25 μl of HEPES, pH 8.5. Peptides were labeled with 6-plex tandem mass tag (TMT) reagents (Thermo Scientific, Rockford, Ill.). After 1 hour of incubation at room temperature, the reaction was quenched with hydroxylamine and acidification with formic acid to pH˜2. TMT labeled peptides were combined, desalted by StageTips, dried and resuspended in 10 μl of 1% formic acid. All spectra were acquired using an Oribtrap Fusion mass spectrometer (Thermo Scientific) in line with an Easy-nLC 1200 (Thermo Fisher Scientific) ultra-high pressure liquid chromatography (UHPLC) pump. […] For MS3 based TMT quantitation, MS2 spectra were collected at an AGC of 4000, max injection time of 150 ms, and CID collision energy set at 35%. […] For quantification, a 0.03 m/z window centered on the theoretical DA value of each reporter ion was utilized for the nearest maximal signal intensity. […]

[2] = Fasting insulin and liver pAkt in treated mice; type: in vivo
Procedure: Serum samples were gathered from blood collected by cardiac puncture. Insulin was measured with Ultra Sensitive Mouse Insulin ELISA Kit (Crystal Chem, 90080). Kits used to measure alanine transaminase (EALT-100), aspartate transaminase (EASTR-100), lactate dehydrogenase (DLDH-100) were purchased from Bioassay Systems. Kits used to measure lactate (MAK 064), b-hydroxybutyrate (MAK 041), Triglycerides (TR0100) were purchased from Sigma. Kit used to measure cholesterol (C7510) was purchased from Pointe Scientific. Kit used to measure non-esterified fatty acids was purchased from Wako.

Cc1ccc(CN(CC(O)COc2cccc3[nH]ccc23)C(C)(C)C)cc1 (stereo not drawn) [SR-18292, 1-((1H-indol-4-yl)oxy)-3-(tert-butyl(4-methylbenzyl)amino)propan-2-ol]
number of PGC-1α lysine residues with increased acetylation [1]: 7
basal (fasting) blood insulin levels ([2]; HFD 13 weeks): not significantly changed
phosphorylation of Akt in liver ([2]; fasted mice): not changed
